These results are taken from patent US10772917B2, “Pancreatic endocrine progenitor cell therapies for the treatment of obesity and type 2 diabetes (T2D)” (THE UNIVERSITY OF BRITISH COLUMBIA, priority 2015, dated 2020).

The conditions of assay [1]: under the conditions tested; cited from earlier work.
For assay [2], the system named is HFD-fed mice. The assay can be described thus: Body weight, epididymal fat pad weight and leptin in 60% fat diet mice given antidiabetic drug with or without cell transplant (Example 6). Type of assay: in vivo, mouse (SCID-beige). Conditions: for circulating leptin levels: 60% fat diet, drug combined with cell transplant vs respective sham controls on the same drug, 20 weeks post-transplant. From the text: Male SCID-beige mice (C.B-Igh-1b/GbmsTac-Prkdcscid-LystbgN7, 8-10 weeks old; Taconic™) were maintained on a 12 hr light/dark cycle throughout the study. All experiments were approved by the UBC Animal Care Committee and carried out in accordance with the Canadian Council on Animal Care guidelines.
(§1) In the second cohort, mice were placed on either the 10% fat control diet (D12450K; n=8) for the duration of the study of 60% fat diet (D12492; n=64) for 6 weeks, followed by one of the following treatment regimens for the remainder of the study (n=16 per group): (1) 60% fat diet with no drug (D12492), (2) 60% fat diet containing rosiglitazone (18 mg/kg diet or ˜3 mg/kg BW per day; Cayman Chemical™; Research Diets™ custom diet formulation D08121002), (3) 60% fat diet containing sitagliptin (4 g/kg diet or ˜750 mg/kg BW per day; sitagliptin phosphate monohydrate, BioVision™; Research Diets™ custom diet formulation D08062502R), or (4) 60% fat diet (D12492) and metformin (1,1-dimethylbiguanide hydrochloride) in drinking water (1.25 mg/ml or ˜250 mg/kg BW per day).
The procedure used for transplantation of macro-encapsulated pancreatic progenitor cells was as follows. Similar transplantation of macro-encapsulated pancreatic endocrine precursor cells or insulin-producing cells was described in Rezania et al. 2014, Pagliucca et al. 2014 and Agulnick A. D. et al. 2015. All mice were anaesthetized with inhalable isoflurane and transplant recipients received ˜5×10^6 hESC-derived pancreatic progenitor cells subcutaneously (s.c.) within a 20 1 TheraCyte™ macroencapsulation device (TheraCyte Inc.™, Laguna Hills, Calif.) on the right flank, as previously described (Bruin et al., 2013). Sham mice received the same surgical procedure, but no macroencapsulation device was implanted. In the first cohort, mice were randomly assigned to receive either a cell transplant (Tx, n=7 per diet) or sham surgery (sham, n=4 per diet) after 7 weeks of LFD or HFD feeding. […]
All metabolic analyses were performed in conscious, restrained mice and blood samples were collected via the saphenous vein. BW and blood glucose levels were assessed regularly throughout each study following a 4-hr morning fast. […]
Glucose tolerance tests (GTTs) were performed following a 6-hour morning fast and administration of glucose by oral gavage or intraperitoneal (i.p.) injection (2 glucose/kg BW, 30% solution; Vétoquinol™, Lavaltrie, QC). Glucose-stimulated human C-peptide secretion from engrafted cells was assessed following an overnight fast and an i.p. injection of glucose (2 g/kg). […] Blood glucose levels were measured using a handheld glucometer (Lifescan™; Burnaby, Canada). […]

Assay [3] relates to pancreatic regeneration. Conditions: ductal ligation model; cited from earlier work.
The test system of assay [4] is HFD-fed mice. The assay is described as follows: Fasting blood glucose and oral glucose tolerance test in 60% fat diet mice given antidiabetic drug with or without cell transplant (Example 6). Format: in vivo, mouse (SCID-beige). Conditions: for glucose tolerance (oral glucose tolerance test): HFD-fed mice, cell therapy combined with the drug. Here is the method: as §1
(§2) The procedure used for transplantation of macro-encapsulated pancreatic progenitor cells was as follows. Similar transplantation of macro-encapsulated pancreatic endocrine precursor cells or insulin-producing cells was described in Rezania et al. 2014, Pagliucca et al. 2014 and Agulnick A. D. et al. 2015. All mice were anaesthetized with inhalable isoflurane and transplant recipients received ˜5×10^6 hESC-derived pancreatic progenitor cells subcutaneously (s.c.) within a 20 1 TheraCyte™ macroencapsulation device (TheraCyte Inc.™, Laguna Hills, Calif.) on the right flank, as previously described (Bruin et al., 2013). Sham mice received the same surgical procedure, but no macroencapsulation device was implanted. In the first cohort, mice were randomly assigned to receive either a cell transplant (Tx, n=7 per diet) or sham surgery (sham, n=4 per diet) after 7 weeks of LFD or HFD feeding. In the second cohort, HFD-fed mice (+/−drug treatment) received either a transplant (n=8 per group) or sham surgery (n=8 per group) 1 week after administration of the antidiabetic drugs. LFD controls all received sham surgery.
All metabolic analyses were performed in conscious, restrained mice and blood samples were collected via the saphenous vein. BW and blood glucose levels were assessed regularly throughout each study following a 4-hr morning fast. For all other metabolic tests, blood was collected after fasting (time 0) and at the indicated time points following administration of various secretagogues.
(§3) Glucose tolerance tests (GTTs) were performed following a 6-hour morning fast and administration of glucose by oral gavage or intraperitoneal (i.p.) injection (2 glucose/kg BW, 30% solution; Vétoquinol™, Lavaltrie, QC). Glucose-stimulated human C-peptide secretion from engrafted cells was assessed following an overnight fast and an i.p. injection of glucose (2 g/kg). […] Blood glucose levels were measured using a handheld glucometer (Lifescan™; Burnaby, Canada). Mouse hormone and lipid profiles were assessed in plasma using the following kits: leptin (Mouse Leptin ELISA, Crystal ChemInc.™, Downers Grove, Ill.), insulin (Ultrasensitive Mouse Insulin ELISA, Alpco Diagnostics™, Salem, N.H.), C-peptide (Mouse C-peptide ELISA, Alpco Diagnostics™), triglycerides (Serum Triglyceride kit, Sigma-Aldrich™), free fatty acids (NEFA-HR(2) kit, Wako Chemical™, Richmond, Va.) and cholesterol (Cholesterol E™ kit, Wako Chemical™). Hormone secretion from engrafted hESC-derived cells was assessed by measuring plasma human C-peptide (C-peptide ELISA, 80-CPTHU-E01.1; Alpco Diagnostics™) and human insulin and glucagon levels (K15160C-2; Meso Scale Discovery™, Gaithersburg, Md.). […]

Assay [5] relates to HFD-fed mice. The assay can be described thus: Mouse and human C-peptide after intraperitoneal glucose challenge (Example 6). Type of assay: in vivo, mouse (SCID-beige). Conditions: drug plus cell transplant vs respective sham controls; for reduction of fasting mouse C-peptide levels: 4 weeks post-transplant; for fasting mouse C-peptide levels: 16 weeks post-transplant.
Text: as §2
as §3, with “g/kg). Insulin tolerance tests (ITTs) were performed following a 4-hour morning fast and administration of human synthetic insulin (0.7 IU/kg body weight; Novolin Ge™ Toronto, Novo Nordisk™, Mississaugua, Canada).” for “g/kg).”, “Md.). Hemoglobin A1c (HbA1c) levels were measured with a Siemens DCA 200 Vantage Analyzer™ (Siemens Healthcare Diagnostics™, Tarrytown, N.Y.) from whole blood collected from the saphenous vein with EDTA as an anticoagulant.” for “Md.).”

The mark [6] stands for this setting: 12 weeks post-transplant, drug with the cell therapy.

Consider “insulin: anti-diabetic medicine examined earlier for short term effect (Bruin et al. 2013)”, for which the short term effect result in assay [1] was “without significant effect”.
Turning to `CN(CCOc1ccc(CC2SC(=O)NC2=O)cc1)c1ccccn1` (stereo not shown) [rosiglitazone], in assay [2], the circulating leptin levels result is “no effect”.
Take `C=CC[C@@H]1/C=C(\C)C[C@H](C)C[C@H](OC)[C@H]2O[C@@](O)(C(=O)C(=O)N3CCCC[C@H]3C(=O)O[C@H](/C(C)=C/[C@@H]3CC[C@@H](O)[C@H](OC)C3)[C@H](C)[C@@H](O)CC1=O)[C@H](C)C[C@@H]2OC` [tacrolimus]: the pancreatic regeneration entry in assay [3] is “block pancreatic regeneration”.
Turning to “exendin-4: anti-diabetic medicine examined earlier for short term effect (Bruin et al. 2013)”, the short term effect result in assay [1] is listed as “without significant effect”.
For the compound `N[C@@H](CC(=O)N1CCn2c(nnc2C(F)(F)F)C1)Cc1cc(F)c(F)cc1F` [sitagliptin, sitagliptin phosphate monohydrate], the circulating leptin levels result in assay [2] was “significantly reduced”. The weight loss entry in assay [2] (cells transplanted in combination with the drug, compared with other groups) is reported as “the most weight loss was observed”. Further, the “glucose tolerance (oral glucose tolerance test)” value in assay [4] (12 weeks post-transplant) was “significantly improved”. In assay [4] (setting [6]), the “glycemic control during an oral glucose challenge compared with LFD controls” value is recorded as “indistinguishable” and the “peak glucose level at 15 minutes post-gavage compared with LFD controls” value is “marginally higher”. Besides, the glucose tolerance entry in assay [4] (drug on its own, without cell transplant) is listed as “mild reduction in glucose tolerance”. In assay [5], the “reduction of fasting mouse C-peptide levels” value was “not yet evident” and the “fasting mouse C-peptide levels” value is on record as “significantly reduced”.
For `CN(C)C(=N)NC(=N)N.Cl` [metformin, 1,1-dimethylbiguanide hydrochloride], the circulating leptin levels result in assay [2] was “significantly reduced”. For the same compound, the “glucose tolerance (oral glucose tolerance test)” value in assay [4] (12 weeks post-transplant) is reported as “significantly improved”. Besides, in assay [5], the “reduction of fasting mouse C-peptide levels” value is “not yet evident” and the “fasting mouse C-peptide levels” value is listed as “significantly reduced”.
